From US5098613A, “Anti-inflammatory agents” (Eli Lilly and Company, priority 1990, dated 1992) come the findings set out here.

The subject of test [1] is inflammation created by injecting carrageenin into the hind paws of rats. Nature of the test: Carrageenin Assay. Format: in vivo. As to conditions: Rattus norvegicus, ip, 50 mg/kg i.p., prior to carrageenin injection, read-out: Percent Inhibition (Antiinflammatory Activity in the Carrageenin Assay). As to the method: The compounds were evaluated for antiinflammatory activity in the test method described by C. A. Winter, Proc. Soc. Exp. Biol. Med., 111, 544 (1962). In this test, inflammation is created by injecting carrageenin into the hind paws of rats. Test compounds are administered prior to injection to determine percent inhibition of the subsequent inflammation in comparison with control animals.

In test [2] the test system is Arachidonic Acid Induced Ear Edema. Nature of the test: Arachidonic Acid-Induced Ear Edema Assay. In kind it is in vivo, Female BALB/C mice. The conditions noted are these: Mus musculus, 1 h, topical, one hour prior to arachidonic acid, read-out: Percent Inhibition of Ear Swelling; for inhibition in vivo at 1 %: 1% in ethanol gel; for inhibition in vivo at 0.05 %: 0.05% in ethanol gel. The method, then: Female BALB/C mice (Charles River; 18-20 rams) were divided into groups of five. Arachidonic acid was dissolved in ethanol at a concentration of 200 mg/ml. Each mouse received 2 mg/ear of arachidonic acid on the inner surface of the right ear. This dose of phlogistic was applied by an automatic pipette in 10 mcl volumes. The left ear (control) received ethanol. Drugs were applied topically in an ethanol-based gel to the entire outer surface of both ears one hour prior to arachidonic acid application. Edema was measured by the increase in ear weight. An hour after arachidonic acid solution or vehicle was applied, an ear sample of 7 mm in diameter was obtained from both ears. Ear edema was calculated by subtracting the […], dividing by the weight of the left/Control ear, and averaging the results for each group of mice according to compound and concentration.

For test [3], the system named is IL-1 induced T-cell Proliferation. Nature of the test: Anti IL-1 Activity (Thymocyte Assay): suppression of IL-1 induced T-cell proliferation. Format: cell-based, C3H/HeJ male mice. As to conditions: mouse thymocytes, 48 hours, read-out: Percent T-cell suppression; for inhibition at 1 µg/mL: 1 mcg/ml; for inhibition at 10 µg/mL: 10 mcg/ml. As to the method:
Thymus from 3-4 week old C3H/HeJ male mice and were passed through a #100 mesh screen to make a single cell suspension. The cells were suspended in RPMI-1640 supplemented with 2×10^-5 M 2-mercaptoethanol, 3% fetal calf serum, and 1% Penicillin/Streptomycin. The cell suspension was placed in a tissue culture flask and incubated at 37° C. in 5% carbon dioxide in air for 1-2 hours. The thymocytes were decanted, leaving adherent cells behind, and the liquid was centrifuged at 1400 rpm for 10 minutes. After decanting the supernatant, the cells were resuspended and counted with a hemocytometer. The density was adjusted to […]. Fifty μ1 of the suspension were added to each well of a 96-well microtiter plate, followed by the addition of 25 μl of PHA and 25 μl IL-1 (1:25 dilution of a 10 mcg/ml stock solution) per well.
Each compound to be tested was dissolved in 30% DMSO/70% PBS to make a stock solution of 1 mg/ml. Fifteen μl of each compound were added to 300 μl of media in the serial dilution plate. Twenty-five μl of each drug were added to the test plate in quadruplicate wells across the plate. The plate was incubated at 37° C. in 5% carbon dioxide in air for 48 hours. The wells were pulsed with tritiated thymidine (5 μCi.well) for 4 hours before harvesting on a Skatron cell harvester. The filter discs were placed in mini-vials, scintillation fluid (Tol-Pop) was added, and the vials counted. The percent of counts for each vial compared with control samples wherein no compound was added (vehicles only) was determined for each compound and are reported as Table III below as the percent T-ce1 suppression.

The subject of test [4] is shock after E. coli LPS and galactosamine (GALN) challenge. The experiment in a line: Mouse Endotoxin Shock Assay. Format: in vivo, C57BL/6 male mice. The conditions noted are these: LPS/GALN s.c. challenge, results 48 hours after challenge, Reed Muench Method. As to the method: Compounds were given to 18-20 g C57BL/6 male mice using various regimens depending upon mode of administration. Control animals received corresponding vehicles only. The mice were then challenged with 0.2 ml of chromatographically purified 0111:B4 E. coli LPS and galactosamine hydrochloride (GALN) given subcutaneously (back of the neck). GALN was given at an approximate dose of 500 mg/kg whereas the LPS dose ranged between 0.3-1.2 μg/mouse (15-60 μg/k9). Control animals generally die of shock 7-15 hours after administration of LPS/GALN although a small number (0-5%) may die 24-48 hours after such administration. Calculation of the EDso for each compound was performed using the Reed Muench Method for results obtained 48 hours after challenge.

Test [5] addresses T1, leukotriene B4 specific receptor on the membrane of human neutrophils (Homo sapiens, UniProt Q15722).
T1 construct: incubating neutrophils (1×10^7 cells) with 0.1-0.2 nM ^3 H-LTB4; endogenous in cells; host or cells: human peripheral blood neutrophils (buffy coats of two blood donors)
The experiment in a line: Inhibition of Binding of ^3 H-LTB4 to Peripheral Human Neutrophils. The conditions noted are these: 4° C., 10 minutes; for inhibition at 10 µM: drug concentration 10^-5 M, read-out: LTB4 Binding Inhibition; for inhibition at 1 µM: drug concentration 10^-6 M; for inhibition at 0.1 µM: drug concentration 10^-7 M. In a few lines: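 Freshly isolated human donor neutrophils (1×10^7 cells) in HBSS/0.1% ovalbumin pH 7.3 were incubated with 0.1-0.2 nM ^3H-LTB4 and compound at 1×10^-5 or 1×10^-6 M for 10 min at 4 °C. Bound ligand was separated by centrifugation through phthalate oil and counted, then corrected for nonspecific binding and compared with compound-free control.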

T1 sequence (Q15722 whole entry): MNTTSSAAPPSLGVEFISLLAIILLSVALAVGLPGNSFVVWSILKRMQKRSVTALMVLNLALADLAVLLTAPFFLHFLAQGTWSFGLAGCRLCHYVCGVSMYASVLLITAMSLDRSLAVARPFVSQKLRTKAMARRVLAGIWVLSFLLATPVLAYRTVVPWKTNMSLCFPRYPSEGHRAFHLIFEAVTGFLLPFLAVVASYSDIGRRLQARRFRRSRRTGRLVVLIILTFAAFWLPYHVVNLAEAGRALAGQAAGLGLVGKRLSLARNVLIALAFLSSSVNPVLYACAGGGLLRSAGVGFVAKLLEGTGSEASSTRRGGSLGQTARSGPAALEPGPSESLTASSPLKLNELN

What is called ED50 is the midpoint of the dose-response relation. Read a high ED50 as a need for a large dose. Regarding `CCc1cc(C(C)=O)c(O)cc1OCCCCc1nnnn1C` [Example 122, 2-Hydroxy-4-[4-(1-methyl-lH-tetrazol-5-yl)butoxy]-5-ethylacetophenone], in test [1], the inhibition in vivo at 50 mg/kg worked out at 53%. Moreover, the inhibition in vivo at 1 % in test [2] is 10%. Moreover, in test [3], the inhibition at 1 µg/mL turned out to be 37% and the inhibition at 10 µg/mL was determined as 87%. In test [4], this compound yielded an ED50 of 42 mg/kg. For the same compound, in test [5], the inhibition at 10 µM stood at 66% and the inhibition at 1 µM is 24%.

For the compound `CCc1cc(C(C)=O)c(O)cc1OCCCCCC(C)(C)c1nn[nH]n1` [Example 108, 5-Ethyl-2-hydroxy-4-[6-methyl-6-(1H-tetrazol5-yl)heptyloxy]acetophenone], the inhibition in vivo at 50 mg/kg in test [1] was found to be 61%. Also, the inhibition in vivo at 1 % in test [2] amounted to 60%. The ED50 in test [4] is greater than 50 mg/kg. Also, in test [5], the inhibition at 10 µM was 105%, the inhibition at 1 µM was 96% and the inhibition at 0.1 µM came out at 60%.

As to `CCc1cc(C(C)=O)c(O)cc1OCCCCCC[S+](C)[O-]` (stereo not shown) [Example 82, 2-Hydroxy-4-[6-(methylsulfinyl)hexyl-oxy]-5-ethylacetophenone], the inhibition in vivo at 50 mg/kg in test [1] turned out to be 31%. The inhibition in vivo at 1 % in test [2] stood at 9%. For the same compound, in test [3], the inhibition at 1 µg/mL is 21% and the inhibition at 10 µg/mL amounted to 88%. Further, the ED50 in test [4] is greater than 50 mg/kg. Besides, in test [5], the inhibition at 10 µM is 91% and the inhibition at 1 µM is 50%.

Take `C=CCc1cc(C(C)=O)c(O)cc1OCc1cccc(C#N)c1` [Example 50]: the inhibition in vivo at 50 mg/kg in test [1] was in the range of 50 to 82%. For the same compound, the inhibition in vivo at 0.05 % in test [2] was 29 to 47%. In test [4], this compound displayed an ED50 of 9.5 mg/kg. Besides, in test [5], the inhibition at 10 µM came out at 67%, the inhibition at 1 µM came to 66% and the inhibition at 0.1 µM amounted to 25%.

Regarding `C=CCc1cc(C(C)=O)c(O)cc1OCc1ccc(C#N)cc1` [Example 48, 4[(4-Acetyl-5-hydroxy-2-allylphenoxy)-methyl]benzonitrile], the inhibition in vivo at 50 mg/kg in test [1] stood at 30%. The inhibition in vivo at 0.05 % in test [2] was determined as 13.6%. Also, in test [4], it took a dose of 18.6 mg/kg to reach the 50% effect level (ED50). In test [5], the inhibition at 10 µM was 22% and the inhibition at 1 µM turned out to be 28%.

In the case of `C=CCc1cc(C(C)=O)c(O)cc1OCc1cccc(C)c1` [Example 51, 2-Hydroxy-4-(3-methylbenzyloxy)-5-allyl-acetophenone], in test [1], the inhibition in vivo at 50 mg/kg stood at 79%. In addition, the inhibition in vivo at 0.05 % in test [2] turned out to be 43%. The inhibition in vivo at 0.1 % in test [2] (0.1% in ethanol gel) was determined as 31%. For the same compound, the 50% effect level in test [4] (ED50) was put at a dose of 27 mg/kg. For the same compound, in test [5], the inhibition at 10 µM was determined as 24% and the inhibition at 1 µM worked out at 32%.

Regarding `C=CCc1cc(C(C)=O)c(O)cc1OCc1ccccc1C#N` [Example 49, 2-[(4-Acetyl-5-hydroxy-2-allylphenoxy)-methyl]benzonitrile], in test [1], the inhibition in vivo at 50 mg/kg stood at 43%. Also, the inhibition in vivo at 0.05 % in test [2] turned out to be 31%. The same compound registered an ED50 in test [4] greater than 50 mg/kg. Also, in test [5], the inhibition at 10 µM is 47% and the inhibition at 1 µM amounted to 15%.

As to `CCc1cc(C(C)=O)c(O)cc1OCCCCCC(C)(C)C#N` [Example 68, 4-(6-Cyano-6-methylheptyloxy)-5-ethyl-2-hydroxyacetophenone], the inhibition in vivo at 50 mg/kg in test [1] came out at 33%. For the same compound, the inhibition in vivo at 1 % in test [2] worked out at 46%. Also, in test [3], the inhibition at 1 µg/mL amounted to 13% and the inhibition at 10 µg/mL was 99%. In test [4], this compound returned an ED50 greater than 50 mg/kg. Besides, in test [5], the inhibition at 10 µM is 84% and the inhibition at 1 µM was found to be 53%.

`C=CCc1cc(C(C)=O)c(O)cc1OCc1ccccc1` [Example 47, 2-Hydroxy-4-benzyloxy-5-allylacetophenone]: the inhibition in vivo at 50 mg/kg in test [1] fell in the range of 53 to 65%. Besides, the inhibition in vivo at 0.05 % in test [2] is 52%. Also, in test [4], the ED50 was 24 mg/kg. In test [5], the inhibition at 10 µM was 32% and the inhibition at 1 µM was found to be 5%.

Regarding `CCc1cc(C(C)=O)c(O)cc1OCCCCCCS(C)(=O)=O` [Example 83, 2-Hydroxy-4-[6-(methylsulfonyl)hexyl-oxy]-5-ethylacetophenone], the inhibition in vivo at 50 mg/kg in test [1] was found to be 26%. Also, the inhibition in vivo at 0.028 % in test [2] (0.028% in ethanol gel) is 59%. Besides, in test [3], the inhibition at 1 µg/mL was determined as 29% and the inhibition at 10 µg/mL came to 43%. In addition, the ED50 in test [4] is greater than 50 mg/kg. Also, in test [5], the inhibition at 10 µM was 98% and the inhibition at 1 µM was 61%.
